“Also recorded” adds a separate entry of the source. Where two headings read alike, the source gives them in different places.
Assays:
[1] = system: PAR formation in procyclic T. brucei; assay: In culture inhibition of PAR formation after H2O2, Dot blot, procyclic form; assay type: cell-based, Trypanosoma brucei; settings: inhibitor at 10-fold in vitro IC50 (0.23 μM 4-ANI; 65 nM EB-47; 29 nM Olaparib; 1.5 μM Rucaparib), 30 min preincubation, 500 μM H2O2 10 min
Method: (§1) T. brucei procyclic strain 29–13 [29] was cultured at 28 °C in SDM-79 (Bioscience) containing 10 % (v/v) FCS and 0002 % hemin. T. brucei bloodstream strain 427 90-13 [29] was cultured at 37 °C in HMI-11 (Iscore’s Modified Dulbecco’s Medium (Invitrogen), 100 mg/L sodium pyruvate, 136.1 mg/L hypoxantine, 38.7 mg/L thymidine, 28.22 mg/L bathocuproinedisulfonic acid, 181.8 mg/L L-cysteine, 3.024 mg/L sodium carbonate, 196 μM β-mercaptoethanol) containing FCS (10 % v/v). Parasite viability was analyzed by microscopy.
(§2) For in culture inhibition assays, parasites of the procyclic form of Trypanosoma brucei were grown for 48 h up to a density of 5×10^6 parasites/mL. Parasites of the bloodstream form were grown for 24 h up to a density of 5×10^5 parasites/mL. In both cases, cells were harvested and preincubated for 30 min or 10 min in PBS-Glucose 2 % with inhibitors added, after which the parasites were treated with 500 μM or 250 μM hydrogen peroxide for procyclic and bloodstream forms, respectively, for 10 min.

[2] = system: Trypanosoma brucei bloodstream parasites; assay: Effect of inhibitors on bloodstream parasite growth (Neubauer count, 24 h); assay type: cell-based; settings: Olaparib 29 nM, Rucaparib 1.5 μM, 3-AB 580 μM, Nifurtimox 2.5 μM
Method: Trypanosoma brucei bloodstream parasites were grown in HMI-11 medium for 24 h until reaching a density of 5×10^5 cells/mL. Aliquots of 100 μL were distributed in 96-well plates and inhibitors were added at different concentrations as indicated in the figures. After an incubation period of 24 h, the parasite number was counted with a Neubauer chamber. In all experiments, triplicates were done for each condition tested and data significance was assessed by one-way Anova (GraphPad Prism5.03 version Software).

TcPARP = system: TcPARP; parameters: method as in PMID 23049934; settings: read-out: potency towards TcPARP; cited from earlier work
TbPARP = TbPARP (Trypanosoma brucei brucei, UniProt Q0PW89); assay: biochemical; settings: 5 nM TbPARP, 500 nM NAD+, 11 min at 25 °C, mean of three dose-response curves
Method: The optimal conditions for the activity of purified recombinant TbPARP, were determined by using a fluorometric activity assay. Incubation at 25 °C with shaking at 300 rpm was placed in propylene plates of 96 wells (Greiner BioOne). To terminate the reaction 2 M KOH (20 μL) and 20 % acetophenone in ethanol (20 μL) were added to each well. After incubating for 10 min at 4 °C, 90 μl of 88 % formic acid was added and incubated in an oven at 110 °C for 5 min. This reaction converts remaining NAD^+ to a fluorescent derivative. After incubation, the plate was allowed to cool down for 15 min and fluorescence was measured using excitation wavelengths of 372 nm and 444 nm for excitation and emission, respectively (Varioskan Flash 4.00.53, Thermo Scientific). Consumption of NAD^+ was detected by the decrease in fluorescence. Experiments were done in triplicates. The activity in control wells were kept under 25 % by optimizing the protein concentration and the incubation time, in order to get a robust signal without slowing down the enzyme activity.
A small set of cations was also tested in order to verify whether the enzymatic activity would depend on them. […] The final assay buffer was 100 mM Na2HPO4/NaH2PO4 pH 7, 500 μM TCEP, 1 μg/μL BSA, and 0.025 mg/mL activated DNA (Sigma Aldrich) and 500 nM NAD^+ (Sigma Aldrich).
Thirty - one compounds were tested. Dilutions from DMSO stocks were made (100 μM, 10 μM and 1 μM) and aliquots of those were used in the enzymatic reaction with 10-fold dilution. Inhibitor solutions were added in triplicates to the plate, followed by the addition of the NAD^+. Reactions were initiated by addition of TbPARP diluted in the same buffer (10 nM). The plate was incubated at 25 °C with shaking (300 rpm, Biosan PST-100 HL) for 45 min. […] To detect any potential fluorescence inherent in the compounds, control reactions were carried out separately with compound alone at 10 μM final concentration. The possible fluorescence quenching properties were controlled using wells within the experimental plate containing the compound with 500 nM NAD^+ in the assay buffer.
The IC50 value for 3-AB (Alexis Biochemicals) was also determined to be used as a reference. Briefly, reaction mix together with the inhibitors at half log dilutions were added to a 96-well plate (10 data points). Reactions were incubated for 11 min at 25 °C after initiating the reaction with the addition of 5 nM TbPARP at a final volume of 50 μL. Measurement of the remaining NAD^+ is described in section Screening of TbPARP inhibitors. All reactions were performed in triplicates and three independent dose response curves were fitted for each inhibitor. Control wells with only NAD^+ or NAD^+ and enzyme were used in the curve fitting, as detailed in our previous work.

[3] = system: PAR formation in bloodstream T. brucei; assay: In culture inhibition of PAR formation after H2O2, Dot blot, bloodstream form; assay type: cell-based, Trypanosoma brucei; settings: inhibitor at 10-fold in vitro IC50 (29 nM Olaparib; 1.5 μM Rucaparib), 10 min preincubation, 250 μM H2O2
Method: as §1, §2

[4] = system: Trypanosoma brucei procyclic parasites; assay: Effect of inhibitors on procyclic parasite growth (OD600, 48 h); assay type: cell-based
Method: Trypanosoma brucei procyclic parasites were grown in SDM-79 medium for 48 h until reaching a density of 5×10^6 cells/mL. Aliquots of 200 μl were distributed in 96-well plates and inhibitors were present at different final concentrations, as indicated in the figures. Nifurtimox (NFX) was used as a positive control in concentrations ranging from 0.25–25 μM. Culture density was checked by OD600 after 48 h.
In all experiments, triplicates were done for each condition tested and data significance was assessed by one-way Anova (GraphPad Prism5.03 version Software).

TbPARP, sequence (Q0PW89 entry or part of it): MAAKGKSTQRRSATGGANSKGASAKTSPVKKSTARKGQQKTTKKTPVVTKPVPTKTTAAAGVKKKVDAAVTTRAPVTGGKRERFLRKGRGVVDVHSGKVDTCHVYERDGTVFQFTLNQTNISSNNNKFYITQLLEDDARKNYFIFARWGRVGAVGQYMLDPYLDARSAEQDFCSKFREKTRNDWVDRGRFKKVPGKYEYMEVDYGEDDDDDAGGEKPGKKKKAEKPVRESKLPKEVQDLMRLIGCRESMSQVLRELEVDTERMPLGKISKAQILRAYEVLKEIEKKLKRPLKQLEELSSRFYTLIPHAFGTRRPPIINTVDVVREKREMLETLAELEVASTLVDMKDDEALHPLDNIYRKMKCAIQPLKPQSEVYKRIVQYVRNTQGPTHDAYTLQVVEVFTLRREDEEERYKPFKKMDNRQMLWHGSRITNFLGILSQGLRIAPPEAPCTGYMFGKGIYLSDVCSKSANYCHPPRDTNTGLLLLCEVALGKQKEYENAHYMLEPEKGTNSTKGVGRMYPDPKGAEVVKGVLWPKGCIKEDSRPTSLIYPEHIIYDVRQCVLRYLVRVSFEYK

- IC50 (TbPARP; read-out: TbPARP IC50): 150 nM
- IC50 (TbPARP; read-out: TbPARP pIC50 ± SEM (converted)): 148 nM
Structure (SMILES): CNCc1ccc(-c2[nH]c3cc(F)cc4c3c2CCNC4=O)cc1 [Rucaparib, 6-fluoro-2-{4-[(methylamino)methyl]phenyl}-3,10-diazatricyclo[6.4.1.0^{4,13}]trideca-1,4(13),5,7-tetraen-9-one]
- inhibition of PAR formation in culture, procyclic form [1]: inhibited PAR formation in culture; also recorded: able to reduce PAR formation
- effect on bloodstream parasite growth [2]: not able to significantly affect T. brucei growth or survival
- IC50 (TcPARP): 25 nM
- inhibition of PAR formation in culture, bloodstream form [3]: able to inhibit PAR formations in culture; also recorded: able to reduce PAR formation
- impact on growth rate of procyclic parasites ([4]; 15 μM (highest concentration)): visible impact on the growth rate
- decrease in procyclic parasite growth ([4]; 15 μM, 48 h): 20%

— publication PMC4806436, “Disrupted ADP-ribose metabolism with nuclear Poly (ADP-ribose) accumulation leads to different cell death pathways in presence of hydrogen peroxide in procyclic Trypanosoma brucei” (Parasites & Vectors, 2016)
